“And” between values parts separate entries of the source, which are not always exact repeats. Equal values may be shown once.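 Five concentrations, 48 hours, 96-well plates. The concentration for 50% growth inhibition is given as GI50. At the TGI there is no net growth.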

Test systems include A549 NSCLC; CCRF-CEM leukemia; HCC-2998 colon; HCT-15 colon; IGROV1 ovarian; LOX IMVI melanoma; NCI-H23 lung; NCI-H522 lung; SK-MEL-2 melanoma; SW-620 colon.
What all share (assay): NCI anticancer screen, dose series, 48 h

On to `C=C1CCC2C(/C=C(\C)CCC1O)OC(=O)C2C` (configuration not stated), for which the GI50 with A549 NSCLC was above 100 µM; in the assay with CCRF-CEM leukemia, 31.3 µM; in the assay with HCC-2998 colon, above 100 µM; with HCT-15 colon, above 100 µM; in the assay with IGROV1 ovarian, above 100 µM; in the assay with LOX IMVI melanoma it was above 100 µM. For the same compound, the GI50 in the assay with NCI-H23 lung, with NCI-H522 lung, in the assay with SK-MEL-2 melanoma and in the assay on SW-620 colon was above 100 µM each time. In addition, the TGI with A549 NSCLC, in the assay on CCRF-CEM leukemia, in the assay with HCC-2998 colon, with HCT-15 colon, in the assay on IGROV1 ovarian and in the assay on LOX IMVI melanoma was above 100 µM in each case. Moreover, the TGI in the assay on NCI-H23 lung, in the assay with NCI-H522 lung, in the assay on SK-MEL-2 melanoma and in the assay with SW-620 colon was above 100 µM in each case.
On to `C=C1C(=O)O[C@H]2[C@H]1CC/C(CNC(=O)c1c[nH]c3ccc(F)cc13)=C\CC[C@@]1(C)O[C@@H]21`, for which the GI50 was 4.59 µM in the assay on A549 NSCLC; 0.359 µM with CCRF-CEM leukemia; 1.84 µM in the assay on HCC-2998 colon; 0.732 µM in the assay on HCT-15 colon; 1.63 µM in the assay on IGROV1 ovarian; 0.731 µM with LOX IMVI melanoma. The GI50 in the assay with NCI-H23 lung was 1.68 µM; with NCI-H522 lung, 0.282 µM; in the assay with SK-MEL-2 melanoma, 1.42 µM; with SW-620 colon it was 0.639 µM. Also, the TGI with A549 NSCLC was 19.6 µM; in the assay on CCRF-CEM leukemia, 1.83 µM; in the assay with HCC-2998 colon, 3.44 µM; in the assay with HCT-15 colon it was 2.21 µM; with IGROV1 ovarian, 5.47 µM; in the assay with LOX IMVI melanoma, 2.14 µM. For the same compound, the TGI in the assay with NCI-H23 lung was determined as 3.8 µM; in the assay on NCI-H522 lung, 1.31 µM; with SK-MEL-2 melanoma, 3.09 µM; in the assay with SW-620 colon it was 2.1 µM.
In the case of `COc1ccc(-c2nn(-c3cccc(Cl)c3)cc2C2CC(c3ccccc3)=NN2C(C)=O)cc1` (configuration not stated), the GI50 in the assay on A549 NSCLC was 7.58 µM; with CCRF-CEM leukemia, above 100 µM; with HCC-2998 colon, above 100 µM; in the assay on HCT-15 colon, above 100 µM; with IGROV1 ovarian, 13.7 µM; in the assay on LOX IMVI melanoma it was 11 µM. The GI50 with NCI-H23 lung is 10.1 µM; in the assay on NCI-H522 lung, 32.6 µM; in the assay on SK-MEL-2 melanoma it was 4.97 µM; in the assay on SW-620 colon, above 100 µM. Also, the TGI in the assay on A549 NSCLC, in the assay on CCRF-CEM leukemia, with HCC-2998 colon, in the assay with HCT-15 colon, with IGROV1 ovarian and in the assay with LOX IMVI melanoma was above 100 µM each time. Moreover, the TGI in the assay with NCI-H23 lung is above 100 µM; with NCI-H522 lung, above 100 µM; in the assay with SK-MEL-2 melanoma, 22.6 µM; in the assay with SW-620 colon, above 100 µM.
In the case of `Cn1cc(NC(=O)c2cc(NC(=O)CCCCCCCCCCC(=O)Nc3cc(C(=O)Nc4cc(C(=O)NCCC(=N)N)n(C)c4)n(C)c3)cn2C)cc1C(=O)NCCC(=N)N`, the TGI with A549 NSCLC was above 100 µM; in the assay with CCRF-CEM leukemia, above 100 µM; in the assay on HCC-2998 colon it was 73.6 µM; in the assay with HCT-15 colon it was above 100 µM; in the assay on IGROV1 ovarian, above 100 µM; in the assay with LOX IMVI melanoma, above 100 µM. Besides, the TGI was above 100 µM in the assay on NCI-H23 lung, above 100 µM in the assay on NCI-H522 lung, above 100 µM in the assay with SK-MEL-2 melanoma and 55 µM with SW-620 colon.
In the case of `Cc1ccc(-c2c(N)nc(NC#N)nc2CCC(=O)Nc2ccccc2[N+](=O)[O-])cc1`, the TGI in the assay with A549 NSCLC, with CCRF-CEM leukemia, with HCC-2998 colon, in the assay on HCT-15 colon, with IGROV1 ovarian and in the assay on LOX IMVI melanoma was above 100 µM each time. The TGI in the assay with NCI-H23 lung, in the assay on NCI-H522 lung, in the assay with SK-MEL-2 melanoma and in the assay on SW-620 colon was above 100 µM throughout.
As to `COc1cccc(/C=C/C(=O)c2cc3c(N)c(C(=O)Nc4ccccc4C)sc3nc2C)c1`, the GI50 is 1.53 µM in the assay on A549 NSCLC; 1.33 µM in the assay with CCRF-CEM leukemia; 0.955 µM with HCC-2998 colon; 0.854 µM with HCT-15 colon; 1.03 µM with IGROV1 ovarian; 0.875 µM with LOX IMVI melanoma. The GI50 was 1.76 µM with NCI-H23 lung, 1.07 µM in the assay on NCI-H522 lung, 1.7 µM in the assay with SK-MEL-2 melanoma and 1.01 µM in the assay with SW-620 colon. The TGI is 6.29 µM in the assay on A549 NSCLC; above 50 µM in the assay with CCRF-CEM leukemia; 1.87 µM in the assay on HCC-2998 colon; 1.87 µM with HCT-15 colon; 2.44 µM in the assay on IGROV1 ovarian; 1.59 µM with LOX IMVI melanoma. Also, the TGI in the assay with NCI-H23 lung was found to be 8.93 µM; in the assay on NCI-H522 lung it was 3.38 µM; in the assay on SK-MEL-2 melanoma, 8.18 µM; in the assay with SW-620 colon it was 2.32 µM.
Regarding `CC(=O)Nc1cccc(-n2c(=O)n(C3CC3)c(=O)c3c(Nc4ccc(I)cc4F)n(C)c(=O)c(C)c32)c1`, the GI50 with A549 NSCLC was 0.0345 µM and 0.122 µM; with CCRF-CEM leukemia, 9.15 µM and > 10 µM; with HCC-2998 colon, < 0.01 µM and 0.0024 µM; in the assay with HCT-15 colon, 0.65 µM and 0.864 µM; in the assay on IGROV1 ovarian, 0.034 µM and 0.0221 µM; in the assay on LOX IMVI melanoma, < 0.0122 µM and 0.0262 µM. In addition, the GI50 is < 0.01 µM and 0.0212 µM in the assay with NCI-H23 lung; 3.79 µM and > 2.33 µM in the assay on NCI-H522 lung; < 0.01 µM and 0.002 µM in the assay on SK-MEL-2 melanoma; < 0.01 µM and 0.00622 µM in the assay on SW-620 colon. Moreover, the TGI is above 43.8 µM with A549 NSCLC; above 100 µM in the assay on CCRF-CEM leukemia; 15.7 µM and > 10 µM in the assay with HCC-2998 colon; above 75.3 µM in the assay on HCT-15 colon; above 81.6 µM with IGROV1 ovarian; 5.46 µM and > 10 µM in the assay on LOX IMVI melanoma. The TGI with NCI-H23 lung is 19.3 µM and > 10 µM; with NCI-H522 lung it was 22 µM and > 10 µM; in the assay with SK-MEL-2 melanoma, 0.0544 µM; in the assay on SW-620 colon, above 48.8 µM.
Regarding `O=c1cc(-c2cccc(F)c2)[nH]c2cc3c(cc12)OCO3`, the GI50 is 0.498 µM in the assay on A549 NSCLC; 0.346 µM in the assay with CCRF-CEM leukemia; 0.152 µM with HCC-2998 colon; 0.29 µM with HCT-15 colon; 0.326 µM in the assay with LOX IMVI melanoma; 0.172 µM in the assay with NCI-H522 lung. For the same compound, the GI50 with SK-MEL-2 melanoma is 0.23 µM. The TGI is 21.9 µM and 40.9 µM in the assay on A549 NSCLC; 75 µM and > 10.8 µM with CCRF-CEM leukemia; 0.357 µM and 0.538 µM in the assay on HCC-2998 colon; 12.1 µM and > 24.9 µM with HCT-15 colon; above 57 µM in the assay with IGROV1 ovarian; 6.4 µM and > 54.4 µM in the assay with LOX IMVI melanoma. Besides, the TGI is 2.43 µM and 2.83 µM with NCI-H23 lung; 0.406 µM and 0.112 µM in the assay with NCI-H522 lung; 2.9 µM and 23.6 µM in the assay on SK-MEL-2 melanoma; above 100 µM with SW-620 colon.

For the origin of these results see PubChem BioAssay (NCI).
